In patent US20260097105A1, “SYSTEMS, FORMULATIONS AND METHODS FOR GENERATING UNIVERSAL PEPTIDE/MHC COMPLEXES WITH ENGINEERED DISULFIDE CONNECTING THE HEAVY AND LIGHT CHAINS” (priority 2022, published 2026):

Tests used:
MR1 = target: T1, MR1 (Homo sapiens, UniProt Q95460, C283S/G138C); assay: Fluorescence polarization competitive ligand binding (JYM20, DCF-loaded open MR1); settings: 10 nM JYM20; 200 nM DCF-loaded open MR1; pH 7.4
T1 construct: made in house; host or cells: Escherichia coli BL21(DE3) per the general methods
Description: To optimize fluorescence polarization (FP), a direct binding assay between JYM20 and MR1 was conducted to determine the minimum concentration of MR1 and JYM20 required for a maximal signal, as well as the buffer conditions. The FP signal is generated by polarized excitation wavelengths, resulting in depolarized emission when JYM20 is free in solution (with low FP value). […] Because DCF is not a covalent binding ligand, the DCF-loaded open MR1 and JYM20 can together screen a wide range of cancer metabolites for MR1.
Briefly, a buffer consistent of 150 mM NaCl, 20 mM sodium phosphate, 0.05% Tween-20, pH 7.4 was used since Applicants don't need nonphysiologically acidic environment to break the Schiff base. A serial dilution of cancer metabolites in a range of 60-0.06 mM, which were selected from the preliminary in silico screening, was added to 200 nM MR1 and 10 nM JYM20 in a final volume of 100 μL. The kinetic association was monitored for 16 hours, and polarization measurements were recorded every 186 seconds. Excitation and emission values used to monitor the fluorescence of TAMRA-labeled peptides were 531 and 595 nm. All experiments were performed in triplicates at room temperature. Raw parallel (III) and perpendicular emission intensities (I⊥) were collected and converted to polarization (mP) values using the equation 1000*[(III−(G*I⊥))/(III+(G*I⊥))]. An optimized G-factor was determined to be 0.33 for TAMRA-labeled peptides in calculating baseline fluorescence. Non-linear regression fitting of one phase association allowed calculating plateau polarization (mP) values for each kinetic curve. Log transformed values of each peptide concentration were plotted against the plateau mP value, and an IC50 curve was fit using log (inhibitor) vs. response (three parameters) curve from GraphPad Prism v9^9.

[1] = system: WT or open HLA-A*29:02/FTSDYYQLY; assay: Fluorescence polarization IC50 competition assay; format: binding, human; settings: competitor vs FITCKLIDVFHQY
Description: Kinetic association measurements were collected as previously described. Non-linear regression fitting allowed calculating plateau polarization (mP) values for each kinetic curve. Log transformed values of each peptide concentration were plotted against the plateau mP value, and an IC50 curve was fit.

T1 sequence (Q95460 with tags, fused parts or gaps G138C/C283S): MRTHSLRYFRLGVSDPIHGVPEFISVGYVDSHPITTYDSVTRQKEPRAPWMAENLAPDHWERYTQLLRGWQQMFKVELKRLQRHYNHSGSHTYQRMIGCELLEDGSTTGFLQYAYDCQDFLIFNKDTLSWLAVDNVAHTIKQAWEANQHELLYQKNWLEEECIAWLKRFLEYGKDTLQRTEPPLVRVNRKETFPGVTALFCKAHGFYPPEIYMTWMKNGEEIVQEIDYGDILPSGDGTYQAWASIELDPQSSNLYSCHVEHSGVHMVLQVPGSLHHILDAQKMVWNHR
T1 sequence (as listed by the source partner): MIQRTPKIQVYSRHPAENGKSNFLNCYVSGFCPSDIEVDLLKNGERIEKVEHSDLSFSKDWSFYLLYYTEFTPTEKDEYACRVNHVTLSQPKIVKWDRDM

Row | relative binding affinities (IC50) to MR1 (MR1) | Compound | IC50, open compared to WT [1]
1 | low-millimolar | O=C(O)Cc1ccccc1Nc1c(Cl)cccc1Cl [DCF, diclofenac, reference compound] | 
2 | low-millimolar | O=C(O)C1=C[C@@H](O)[C@@H](O)[C@H](O)C1 [SKA, shikimic acid] | 
3 | low-millimolar | O=c1ccn([C@@H]2O[C@H](COP(=O)(O)O)[C@@H](O)[C@H]2O)c(=O)[nH]1 [UMP, Uridine 5′-monophosphate] | 
4 |  | ALIDVFHQY | same IC50

Row | Compound | relative binding affinities (IC50) to MR1 (MR1) | IC50, open compared to WT [1]
5 | O=C(O)C1=CC(=O)[C@@H](O)[C@H](O)C1 [3DA, 3-Dehydroshikimic acid] | low-millimolar | 
